SMILES strings stand for the structures.

The target of the assay is MAPK14 (human) (UniProt Q16539). In words: Inhibition of MAPK14 Kinase Activity. Particulars: for inhibition: concentration not given here.
Chain of MAPK14 (human) (Q16539 whole entry, looked up): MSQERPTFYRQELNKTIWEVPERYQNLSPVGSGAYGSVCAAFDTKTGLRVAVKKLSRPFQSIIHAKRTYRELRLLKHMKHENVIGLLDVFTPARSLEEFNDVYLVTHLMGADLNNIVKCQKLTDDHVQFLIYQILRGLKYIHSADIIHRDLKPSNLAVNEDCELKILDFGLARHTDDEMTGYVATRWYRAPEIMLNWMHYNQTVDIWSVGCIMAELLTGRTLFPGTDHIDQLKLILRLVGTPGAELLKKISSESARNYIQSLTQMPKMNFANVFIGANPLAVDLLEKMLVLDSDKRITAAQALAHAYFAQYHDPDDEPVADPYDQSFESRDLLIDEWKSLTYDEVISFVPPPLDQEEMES

With `CC1(C)OCC(CN2CCN(C(=O)c3cc(C(C)(C)C)sc3NC(=O)Nc3cccc(Cl)c3Cl)C(C)(C)C2=O)O1` (centres undefined), the IC50 is under 5 µM.

`CN(C)CCNC(=O)CN1CCN(C(=O)c2sc(C(C)(C)C)cc2NC(=O)Nc2ccnc(Cl)c2Cl)C(C)(C)C1=O` gave an IC50 of under 5 µM.

With `CC(C)(C)c1cc(C(=O)N2CCNC(=O)CC2)c(NC(=O)Nc2ccnc3ccccc23)s1`, the inhibition lay in the range of 51 to 75%.

In turn, `CC(C)(C)c1cc(C(=O)N2CCNC(=O)CC2)c(NC(=O)Nc2cc(Cl)cc(Cl)c2)s1` returned an inhibition of 76 to 100%.

In turn, `CON(C)C(=O)CN1CCN(C(=O)c2cc(C(C)(C)C)sc2NC(=O)Nc2ccc(F)cc2Cl)C(C)(C)C1=O` yielded an IC50 of under 5 µM.

`CCC1(C)C(=O)NCCN1C(=O)c1cc(C(C)(C)C)sc1NC(=O)Nc1ccc(F)cc1Cl` (centres undefined): the IC50 is under 5 µM.

Take `CN(C)CCN1CCN(C(=O)c2cc(C(C)(C)C)sc2NC(=O)Nc2ccccc2C(C)(C)C)C(C)(C)C1=O`: the IC50 was under 5 µM.

`CN(C)CCN1CCN(C(=O)c2sc(C(C)(C)C)cc2NC(=O)Nc2ccc(F)c(Cl)c2Cl)C(C)(C)C1=O` returned an IC50 of under 5 µM.

Take `COC(=O)CCN1CCN(C(=O)c2cc(C(C)(C)C)sc2NC(=O)Nc2cccc(Cl)c2Cl)C(C)(C)C1=O`: the IC50 was under 5 µM.

`CC1(C)OCC(CN2CCN(C(=O)c3cc(C(C)(C)C)sc3NC(=O)Nc3cccc(Cl)c3Cl)CCC2=O)O1` (centres undefined) registered an inhibition of 76 to 100%.

In the case of `CC(C)(C)c1cc(C(=O)N2CCNS(=O)(=O)CC2)c(NC(=O)Nc2ccc(C#N)c(Cl)c2)s1`, the inhibition lay within 76 to 100%.

In turn, `CN(C)C(=O)N1CCN(C(=O)c2cc(C(C)(C)C)sc2NC(=O)Nc2cccc(Cl)c2Cl)CC1` displayed a 50% inhibitory concentration (IC50) of under 5 µM.

`CC(C)(C)c1cc(C(=O)N2CCNC(=O)C2(C)C)c(NC(=O)Nc2ccc(F)c(Cl)c2Cl)s1` had an IC50 of under 5 µM.

Consider `CN(C)CCCCCN1CCN(C(=O)c2cc(C(C)(C)C)sc2NC(=O)Nc2cccc(Cl)c2Cl)C(C)(C)C1=O`, for which the IC50 is under 5 µM.

`COCCOCCN1CCN(C(=O)c2cc(C(C)(C)C)sc2NC(=O)Nc2cccc(Cl)c2Cl)CCC1=O` displayed an inhibition of 76 to 100%.

Compound `CC(C)(C)c1cc(C(=O)N2CCC(=O)N(CCC(N)=O)CC2)c(NC(=O)Nc2cccc(Cl)c2Cl)s1` registered an inhibition of 76 to 100%.

Take `COC(=O)CC1(C)C(=O)NCCN1C(=O)c1[nH]c(C(C)(C)C)cc1NC(=O)Nc1ccc(F)c(Cl)c1Cl` (centres undefined): the IC50 was under 5 µM.

Compound `CCC1(C)C(=O)NCCN1C(=O)c1cc(C(C)(C)C)sc1NC(=O)Nc1cccc(Cl)c1Cl` (centres undefined) had an IC50 of under 5 µM.

Compound `CC(C)(C)c1cc(C(=O)N2CCNS(=O)(=O)CC2)c(NC(=O)Nc2ccc3ocnc3c2)s1` registered an inhibition of 76 to 100%.

`CC(C)(C)c1cc(C(=O)N2CCN(CC(N)=O)C(=O)C2(C)C)c(NC(=O)Nc2cccc(Cl)c2Cl)s1` displayed an IC50 of under 5 µM.

The compound `CC(C)(C)c1cc(C(=O)N2CCNC(=O)CC2)c(NC(=O)Nc2ccccc2C(C)(C)C)s1` displayed an IC50 of under 5 µM.

`Cc1cccc(NC(=O)Nc2sc(C(C)(C)C)cc2C(=O)N2CCN(CCN(C)C)C(=O)C2(C)C)c1Cl`: the IC50 is under 5 µM.

Take `CC(C)(C)c1cc(C(=O)N2CCNC(=O)CC2)c(NC(=O)Nc2ccc3c(c2Cl)OCO3)s1`: the IC50 was under 5 µM.

In turn, `CN(C)CCNC(=O)CN1CCN(C(=O)c2sc(C(C)(C)C)cc2NC(=O)Nc2ccc(F)c(Cl)c2Cl)C(C)(C)C1=O` had an IC50 of under 5 µM.

`CC(C)(C)c1cc(C(=O)N2CCNC(=O)CC2)c(NC(=O)Nc2cccc3c2OCO3)s1` displayed an IC50 of under 5 µM.

With `CN(C)CCN1CCN(C(=O)c2cc(C(C)(C)C)sc2NC(=O)Nc2c(Cl)cncc2Cl)C(C)(C)C1=O`, the IC50 was under 5 µM.

In the case of `CCc1ccccc1NC(=O)Nc1sc(C(C)(C)C)cc1C(=O)N1CCNC(=O)CC1`, the IC50 is under 5 µM.

Compound `CC1CC(=O)NCCN1C(=O)c1cc(C(C)(C)C)sc1NC(=O)Nc1cccc(Cl)c1Cl` (centres undefined) registered an IC50 of under 5 µM.

The compound `CC(C)(C)c1cc(C(=O)N2CCN(CCC(=O)N(CCO)CCO)C(=O)C2(C)C)c(NC(=O)Nc2cccc(Cl)c2Cl)s1` displayed an IC50 of under 5 µM.

`Cn1ccc(NC(=O)Nc2sc(C(C)(C)C)cc2C(=O)N2CCNS(=O)(=O)CC2)n1` returned an inhibition of 26 to 50%.

Consider `Cc1cccc(NC(=O)Nc2sc(C(C)(C)C)cc2C(=O)N2CCNC(=O)C2(C)C)c1Cl`, for which the IC50 was under 5 µM.

In turn, `COc1cccc(NC(=O)Nc2sc(C(C)(C)C)cc2C(=O)N2CCC(=O)N(CCN(C)C)CC2)c1Cl` gave an IC50 of under 5 µM.

For the compound `CC(C)(C)c1cc(NC(=O)Nc2cccc(Cl)c2Cl)c(C(=O)N2CCNC(=O)C2(C)C)o1`, the IC50 is under 5 µM.

The compound `Cc1ccccc1NC(=O)Nc1sc(C(C)(C)C)cc1C(=O)N1CCNC(=O)C1(C)C` had an IC50 of under 5 µM.

Consider `CC(C)(C)c1nc(C(=O)N2CCNC(=O)C2)c(NC(=O)Nc2cccc(Cl)c2Cl)s1`, for which the IC50 is under 5 µM.

The compound `CN(C)CCN1CCN(C(=O)c2oc(C(C)(C)C)cc2NC(=O)Nc2cccc(Cl)c2Cl)CCS1(=O)=O` gave an IC50 of under 5 µM.

On to `COC(=O)CC1(C)C(=O)NCCN1C(=O)c1cc(C(C)(C)C)sc1NC(=O)Nc1cccc(Cl)c1Cl` (centres undefined), for which the IC50 was under 5 µM.

In turn, `CC(C)(C)c1cc(NC(=O)Nc2cccc(Cl)c2Cl)c(C(=O)N2CCNS(=O)(=O)CC2)o1` had an IC50 of under 5 µM.

On to `CC(C)(C)c1cc(C(=O)N2CCNC(=O)C2(C)C)c(NC(=O)Nc2ccc3c(c2Cl)OCO3)s1`, for which the IC50 was under 5 µM.

Consider `CC(C)(C)c1cc(C(=O)N2CCNC(=O)C23CC3)c(NC(=O)Nc2cccc(Cl)c2Cl)s1`, for which the IC50 was under 5 µM.

Take `CCC1(C)C(=O)N(CC(=O)NCCN2CCCC2)CCN1C(=O)c1cc(C(C)(C)C)sc1NC(=O)Nc1cccc(Cl)c1Cl` (centres undefined): the IC50 is under 5 µM.

`CNC(=O)CN1CCN(C(=O)c2cc(C(C)(C)C)sc2NC(=O)Nc2cccc(Cl)c2Cl)C(C)(C)C1=O` came in with an IC50 of under 5 µM.

Compound `CC(C)(C)c1cc(C(=O)N2CCN(C(=O)CCCC[C@@H]3SC[C@@H]4NC(=O)N[C@@H]43)CC2)c(NC(=O)Nc2cccc(Cl)c2Cl)s1` registered an IC50 of under 5 µM.

As for `CN(C)CCN1CCN(C(=O)c2sc(C(C)(C)C)cc2NC(=O)Nc2ccc(F)c(Cl)c2Cl)CCC1=O`, the IC50 is under 5 µM.

Compound `Cc1ccccc1NC(=O)Nc1sc(C(C)(C)C)cc1C(=O)N1CCC(=O)N(CCN(C)C)CC1` gave an IC50 of under 5 µM.

In turn, `CC(C)(C)c1cc(C(=O)N[C@@H]2CC(=O)NC2=O)c(NC(=O)Nc2ccc(Cl)cc2)s1` returned an inhibition of 76 to 100%.

`COCOCCN1CCN(C(=O)c2cc(C(C)(C)C)sc2NC(=O)Nc2cccc(Cl)c2Cl)C(C)(C)C1=O` returned an IC50 of under 5 µM.

In turn, `Cc1cccc(NC(=O)Nc2sc(C(C)(C)C)cc2C(=O)N2CCNC(=O)CC2)c1` showed an inhibition of 76 to 100%.

`CC1C(=O)NCCN1C(=O)c1cc(C(C)(C)C)sc1NC(=O)Nc1ccc2ccccc2c1` (centres undefined) showed an inhibition of 76 to 100%.

For `CC(C)(C)c1cc(C(=O)N2CCNS(=O)(=O)CC2)c(NC(=O)NC(C)(C)c2ccccc2)s1`, the inhibition lay within 51 to 75%.

The compound `CC(C)(C)c1cc(C(=O)N2CCNC(=O)C2(C)C)c(NC(=O)Nc2ccccc2C(C)(C)C)s1` came in with an IC50 of under 5 µM.

Take `CC(C)(C)c1nc(C(=O)N2CCNC(=O)C2(C)C)c(NC(=O)Nc2cccc(Cl)c2Cl)s1`: the half-maximal inhibitory concentration (IC50) was under 5 µM.

`CC(C)(C)c1cc(NC(=O)Nc2ccc(F)c(F)c2Cl)c(C(=O)N2CCNC(=O)C2(C)CCO)s1` (centres undefined) came in with an IC50 of under 5 µM.

Compound `CN(C)CCN1CCN(C(=O)c2cc(C(C)(C)C)sc2NC(=O)Nc2ccc(F)cc2Cl)CCC1=O` registered an IC50 of under 5 µM.

The term IC50 denotes the point on the concentration scale where inhibition reaches its midpoint. A high value points to weaker potency in that assay. As usually defined, the inhibition is the drop in the measured response relative to a control, in per cent.
